Molecules are shown by their SMILES.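 Cultured in 96-well plates, cells were exposed to test compound for 48 hours across five concentrations. Abbreviation: GI50, concentration required for 50% inhibition of growth. TGI is the concentration that stops growth completely.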

The values that follow come from PubChem BioAssay (NCI).

Among the test systems are 786-0 renal; BT-549 breast; T-47D breast; PC-3 prostate; HS 578T breast; MDA-N; MDA-MB-435; MDA-MB-231 breast; DMS 114 small cell lung; KM20L2 colon; DMS 273 small cell lung; M19-MEL melanoma; HOP-18 NSCLC; SNB-78 CNS.
Holding throughout (test): NCI tumour cell line growth inhibition, 48 h

For the molecule `O=c1c2c3c(sc2nc2n1N=C(c1ccc([N+](=O)[O-])cc1)CS2)CCCC3`, the TGI with 786-0 renal, in the assay with BT-549 breast, with T-47D breast, in the assay with PC-3 prostate, in the assay with HS 578T breast and in the assay with MDA-N was more than 100 µM throughout. In addition, the TGI in the assay on MDA-MB-435 and in the assay on MDA-MB-231 breast was more than 100 µM in each case.
In the case of `CCCCS(=O)CC(CO)NC(=O)/C=C/c1c(C)[nH]c(=O)[nH]c1=O` (configuration not stated), the TGI in the assay on DMS 114 small cell lung was found to be 25.1 µM; in the assay with KM20L2 colon, 56.8 µM; in the assay with DMS 273 small cell lung, 52.7 µM; in the assay with M19-MEL melanoma, 18.1 µM; in the assay with HOP-18 NSCLC, 183 µM.
Regarding `Nc1ccc(OCCCc2c(-c3ccccc3)nc(N)[nH]c2=O)cc1`, the TGI with 786-0 renal was more than 100 µM; with BT-549 breast, more than 100 µM; in the assay with T-47D breast it was 81.2 µM; with PC-3 prostate it was more than 100 µM; in the assay with HS 578T breast, more than 100 µM; with MDA-N it was more than 100 µM. The TGI in the assay with MDA-MB-435 and with MDA-MB-231 breast was more than 100 µM in each case.
Consider `O=C1CSC(C(N=Nc2ccc(Cl)cc2)c2nc3ccccc3[nH]2)=N1` (configuration not stated), for which the TGI in the assay with DMS 114 small cell lung is 58.5 µM; in the assay with KM20L2 colon, more than 100 µM; in the assay with DMS 273 small cell lung it was more than 100 µM; in the assay on M19-MEL melanoma, more than 100 µM.
Take `CC1=C/C(=C2/N=C(N(C)C)SS2)C(C)=N1`: the TGI in the assay with 786-0 renal, in the assay with DMS 114 small cell lung, with SNB-78 CNS, in the assay on KM20L2 colon, with DMS 273 small cell lung and with M19-MEL melanoma was more than 100 µM each time. Besides, the TGI in the assay on HOP-18 NSCLC is more than 100 µM.
In the case of `Cc1cccc(C(=O)O)c1CC1NCCC2c3ccccc3NC12` (configuration not stated), the TGI in the assay with 786-0 renal, in the assay with BT-549 breast, in the assay on T-47D breast, with PC-3 prostate, in the assay on HS 578T breast and in the assay on MDA-N was more than 100 µM each time. In addition, the TGI with MDA-MB-435 and in the assay on MDA-MB-231 breast was more than 100 µM in each case.
For the molecule `Cc1nc2cccc([N+](=O)[O-])c2n1CCCN(C)C`, the TGI in the assay on 786-0 renal, in the assay on BT-549 breast, in the assay on T-47D breast, in the assay on PC-3 prostate, with HS 578T breast and with MDA-N was more than 100 µM each time. Also, the TGI in the assay with MDA-MB-435 and in the assay on MDA-MB-231 breast was more than 100 µM throughout.
As for `C[N+](C)(C)C(C1=CCCC1=O)c1ccccc1` (configuration not stated), the TGI was 39.9 µM with 786-0 renal; 95.5 µM in the assay on BT-549 breast; more than 100 µM with T-47D breast; more than 100 µM in the assay on PC-3 prostate; 66.3 µM in the assay on HS 578T breast; more than 100 µM with MDA-N. Further, the TGI in the assay with MDA-MB-435 stood at 72.7 µM; with MDA-MB-231 breast it was 75.5 µM.
Turning to `CNc1nc2c(C)ccc3[nH]c(N(C)C)nc3c-2n1`, the TGI with 786-0 renal, in the assay on BT-549 breast, with T-47D breast, in the assay with PC-3 prostate, in the assay on HS 578T breast and in the assay on MDA-N was more than 100 µM each time. The TGI in the assay with MDA-MB-435 and in the assay with MDA-MB-231 breast was more than 100 µM each time.
In the case of `CN=C(NC)N(C)c1nc(=[N+](C)C)ss1`, the TGI in the assay on 786-0 renal, with SNB-78 CNS and in the assay on DMS 273 small cell lung was more than 100 µM in each case.
On to `Cc1cc2c(C(C)C)c(O)c(O)c(C=Nc3ccccc3)c2c(O)c1-c1c(C)cc2c(C(C)C)c(O)c(O)c(C=Nc3ccccc3)c2c1O`, for which the TGI in the assay on DMS 114 small cell lung, with KM20L2 colon, with DMS 273 small cell lung and with M19-MEL melanoma was more than 100 µM throughout.
For the molecule `O=C1CCCN1CCCN=c1cc2n(-c3ccc(Cl)cc3)c3ccccc3nc-2cc1Nc1ccc(Cl)cc1`, the TGI with DMS 114 small cell lung is 20.2 µM; with SNB-78 CNS, 75.2 µM; with KM20L2 colon, 11 µM; in the assay with DMS 273 small cell lung, 43.6 µM; in the assay with M19-MEL melanoma, 5.45 µM; in the assay with HOP-18 NSCLC it was more than 92.4 µM.
On to `CCc1c(C)c2ccc(OCC(=O)N=Nc3c(O)[nH]c4ccccc34)c(C)c2oc1=O`, for which, in the assay on BT-549 breast, the GI50 is 0.817 µM and the TGI came to 2.1 µM.
In the case of `COC(=O)C1C(O)C(C)C(O)OC1C(C)C(O)C(C)/C=C\C=C(/C)C(=O)Nc1c(C)c(OC(C)=O)c2c(c1O)C(=O)C(C)=C1OCOC(/C(C)=C/C(C)=O)=C12` (configuration not stated), the TGI in the assay with DMS 114 small cell lung came to 27.5 µM; with SNB-78 CNS it was 24.9 µM; in the assay on KM20L2 colon, 24.4 µM; in the assay on DMS 273 small cell lung it was 25 µM; in the assay with M19-MEL melanoma, 26 µM; in the assay with HOP-18 NSCLC it was 28.7 µM.
Regarding `CC(C)[C@](O)(C(=O)OCC1=CCN2CC[C@@H](O)[C@@H]12)[C@H](C)O`, the TGI is more than 375 µM in the assay with DMS 114 small cell lung; more than 375 µM in the assay on SNB-78 CNS; more than 375 µM in the assay with KM20L2 colon; more than 375 µM in the assay with DMS 273 small cell lung; more than 256 µM in the assay on M19-MEL melanoma; more than 375 µM in the assay on HOP-18 NSCLC.
Regarding `C[C@]12CCc3sc(-c4cccc(F)c4)nc3C1=CC[C@@H]1[C@@H]2CC[C@]2(C)C(=O)CC[C@@H]12`, the GI50 in the assay on BT-549 breast was 2.2 µM; with T-47D breast, 2 µM; with PC-3 prostate it was 3.08 µM; in the assay on HS 578T breast, 3.86 µM; in the assay on MDA-MB-435, 2.97 µM; in the assay with MDA-MB-231 breast, 2.6 µM. In addition, the TGI in the assay on BT-549 breast is 8.06 µM; in the assay on T-47D breast, 5.24 µM; with PC-3 prostate, 14.2 µM; in the assay with HS 578T breast, more than 100 µM; in the assay with MDA-MB-435 it was more than 100 µM; with MDA-MB-231 breast it was 7.34 µM.
As to `CCN(CC)CCNC(=O)c1nn(-c2ccc(Cl)cc2)c2c1CCc1cc(OC)ccc1-2`, the TGI with 786-0 renal stood at 12 µM; with BT-549 breast, 32.1 µM; in the assay on T-47D breast, 21 µM; in the assay with DMS 114 small cell lung, 6.68 µM; with SNB-78 CNS, 24.2 µM; in the assay on KM20L2 colon it was 3.32 µM. Also, the TGI in the assay on PC-3 prostate is 26.3 µM; in the assay with HS 578T breast it was 13.8 µM; in the assay on MDA-N, 10.2 µM; in the assay with MDA-MB-435, 23.6 µM; in the assay with DMS 273 small cell lung it was 5.98 µM; with M19-MEL melanoma, 7.11 µM. In addition, the TGI with HOP-18 NSCLC was determined as 28.7 µM; with MDA-MB-231 breast, 24.5 µM.
